Test results from PubChem BioAssay (NCI).
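Exposure lasted 48 hours, with cells grown in 96-well plates and compounds tested at five concentrations. TGI marks complete inhibition of growth.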

Assays:
Experiment in all cases: NCI tumour cell line growth inhibition, 48 h
[1] = system: A549 NSCLC
[2] = system: CAKI-1 renal
[3] = system: HCT-116 colon
[4] = system: HOP-92 NSCLC
[5] = system: HS 578T breast
[6] = system: KM12 colon
[7] = system: M14 melanoma
[8] = system: MCF7 breast
[9] = system: NCI-H226 lung
[10] = system: NCI/ADR-RES ovarian
[11] = system: OVCAR-3 ovarian
[12] = system: SF-268 CNS
[13] = system: SK-MEL-5 melanoma
[14] = system: SR leukemia
[15] = system: T-47D breast
[16] = system: TK-10 renal
[17] = system: UACC-62 melanoma
[18] = system: RPMI-8226 leukemia
[19] = system: SK-MEL-28 melanoma
[20] = system: LOX IMVI melanoma

Row | SMILES | TGI [1] [µM] | TGI [2] [µM] | TGI [3] [µM] | TGI [4] [µM] | TGI [5] [µM] | TGI [6] [µM] | TGI [7] [µM] | TGI [8] [µM] | TGI [9] [µM] | TGI [10] [µM] | TGI [11] [µM] | TGI [12] [µM] | TGI [13] [µM] | TGI [14] [µM] | TGI [15] [µM] | TGI [16] [µM] | TGI [17] [µM] | TGI [18] [µM] | TGI [19] [µM] | TGI [20] [µM]
1 | O=S(=O)(O)c1ccc2cccc(N=Nc3c(O)ccc4ccccc34)c2c1 | > 100 | > 100 | > 100 | > 100 | > 100 | > 100 | > 100 | > 100 | > 100 | > 100 | > 100 | > 100 | > 100 | > 100 | > 100 | > 100 | > 100 |  |  | 
2 | CC12CCC(CC1=O)C2(C)CCC(N)=O (configuration not stated) | > 100 | > 100 | > 100 |  | > 100 | > 100 | > 100 | > 100 | > 100 | > 100 | > 100 | > 100 | > 100 |  | > 100 | > 100 | > 100 | > 100 | > 100 | 
3 | C=CCOc1ccc(/C(N=Nc2ccc([N+](=O)[O-])cc2)=N/NC(=O)c2ccccc2)cc1OC | > 100 | > 100 | > 100 | > 100 | > 100 | > 100 | > 100 | > 100 | > 100 | > 100 | > 100 | > 100 | > 100 | > 100 | > 100 | > 100 | > 100 |  | > 100 | > 100
4 | C[C@]12CC[C@@H]3c4ccc(OP(=O)(O)O)cc4CC[C@H]3[C@@H]1CCC2=O | > 100 | > 100 | > 100 | > 100 | > 100 | > 100 | > 100 | > 100 |  | > 100 | > 100 | > 100 | 69.2 |  | > 100 | > 100 | > 100 | > 100 | > 100 | > 100
5 | N#CC12C(=O)N3C(=NC(c4ccccc4)NC3c3ccccc3)C1(C#N)C(c1ccccc1)NC1=C2CCC1 (configuration not stated) | > 100 | > 100 | > 100 | > 100 | > 100 | > 100 | > 100 | > 100 | > 100 | > 100 | > 100 | > 100 | > 100 |  | > 100 | > 100 | > 100 | > 100 | > 100 | > 100
6 | O=C(/C=C/c1ccccc1)CCN1CCN(CCC(=O)/C=C/c2ccccc2)CC1 | > 100 | 31.9 | 5.28 | 35.9 | 37.2 | 17 | 23.9 | 20.7 | 64.4 | 60.7 | 30.7 | 29.2 | 28.7 |  | 31.2 | 30 | 30.2 | > 100 | 27.8 | 5.88
7 | CCCC1(NC(=O)C(F)(F)F)CC(OC)OC2COC(c3ccccc3)OC21 (configuration not stated) | > 100 | > 100 | > 100 | > 100 | > 100 |  | > 100 | > 100 | > 100 | > 100 | > 100 | > 100 | 45.2 | > 100 | > 100 |  | > 100 |  | > 100 | > 100
8 | S=c1sc2c(s1)SCCCCSCCCCSc1sc(=S)sc1SCCCCSCCCCS2 | > 100 | > 100 | > 100 |  | > 100 | > 100 | > 100 | > 100 | > 100 | > 100 | > 100 | > 100 | > 100 | > 100 | > 100 | > 100 | > 100 | > 100 | > 100 | > 100
9 | CC(=O)N1C(c2[nH]c3ccccc3c2-c2ccccc2)CCN1c1ccccc1 (configuration not stated) | > 10 | > 10 | > 10 |  | > 10 |  | > 10 | > 10 | > 10 | > 10 | > 10 | > 10 | > 10 | > 10 | > 10 | > 10 |  | > 10 | > 10 | > 10
10 | CCNCCNc1c2ccccc2nc2ccccc12 | 4.95 | 3.48 | 7.99 |  | 5.28 | 4.79 | 3.05 | 3.4 |  | 19.5 | 24.5 | 5.52 | 7.41 | 4.18 | 8.41 | 23.3 | 3.26 |  |  | 2.95
11 | N=c1oc2cc(O)ccc2cc1C(=O)NCc1ccccc1 | > 100 | 69.7 | 71.3 |  | 45.4 | > 100 | > 100 | > 100 | > 100 | 53.5 | 57.9 | 76.3 | 29.5 | 67 | 33.7 | > 100 |  | 39.9 | > 100 | > 100
12 | C=CCOc1ccc(/C(N=Nc2ccc(Cl)cc2)=N/NC(=O)c2ccccc2)cc1OC | > 100 | > 100 | > 100 | 91.6 | > 100 | > 100 | > 100 | > 100 | > 100 | > 100 | > 100 | > 100 | > 100 | > 100 | 61.6 | > 100 | > 100 |  | > 100 | > 100
13 | O=C(Cc1ccccc1)NNc1nc(NNC(=O)c2ccncc2)nc(Nc2ccc([N+](=O)[O-])cc2)n1 | > 10 | > 10 | > 10 | > 10 | > 10 | > 10 | > 10 | > 10 |  | > 10 | > 10 | > 10 | > 10 | > 10 | > 10 | > 10 | > 10 | > 10 | > 10 | > 10
14 | CCN(CC)CCC(=O)c1ccc(Oc2ccc(Cl)cc2)cc1 | > 100 | 37.9 | 32 | 32.8 | 59 | 32.2 | 28.3 | 55.9 |  | 56.7 | 28.6 | 34.5 | 31.2 | 48.7 | 44.3 | 33.1 | 35.2 | 16.3 | 32.6 | 28.8
15 | Cn1c(=S)[nH]c2sc3c(c2c1=O)CCSC3 | > 100 | > 100 | > 100 | > 100 | > 100 | > 100 | > 100 | > 100 | 88.6 | > 100 | 61 | > 100 | > 100 |  | 90.2 | > 100 | > 100 | > 100 |  | > 100
16 | CC(C)(Br)C(Br)CCC(C)(Br)C(Br)CO (configuration not stated) | > 10 | > 10 | > 10 | > 10 | > 10 |  | > 10 | > 10 | > 10 | > 10 | > 10 | > 10 | > 10 |  | > 10 |  |  | > 10 | > 10 | 
17 | O=C1c2c(ccc3c2CCCC3)CC12Cc1ccc3c(c1C2=O)CCCC3 | > 100 |  | > 100 | > 100 | > 100 |  | > 100 | > 100 |  | > 100 | > 100 | > 100 | > 100 | > 100 | > 100 | > 100 |  | > 100 | > 100 | > 100
18 | CC(=O)N1C(=O)/C(=C\C(=O)c2ccc([N+](=O)[O-])cc2)c2ccccc21 | > 100 | 41.2 | 37.8 |  | 54.2 | 55.5 | > 100 | 69.7 | > 100 | > 100 | 32.2 | 49.2 | > 100 | 20.3 | 61.9 | 26.3 | 38.1 |  |  | 
19 | CCOC(=O)c1c(N)sc2c1C(C(=O)OCC)CC2 (configuration not stated) | > 100 |  | > 100 | > 100 | > 100 | > 100 | > 100 | > 100 | > 100 |  |  |  | > 100 | > 100 | > 100 | > 100 | > 100 | > 100 | > 100 | 
20 | [N-]=[N+]=Nc1c(C=O)c(=O)n2c3c(cccc13)CCC2 | 40.9 | 16.2 | 10.9 | 4.5 | 57.3 | 34.6 | 3.9 | 10.6 | 43.7 | > 45.6 | 6.27 | 35.4 | 27.5 |  | 15.5 | 10.1 | 26.5 | > 22.3 | 27.2 | 25.4
